Among the data in PubChem BioAssay AID298 (DTP/NCI, 2004) are T/C values, retold here.

“And” between values parts separate entries of the source, which are not always exact repeats. Identical values can stand only once. Inconclusive results are not listed.

For the assay, the system named is MX-1 breast xenograft, intrarenal, nude mice, tumor weight. Description: NCI In Vivo Anticancer Drug Screen. Data for tumor model Human Mammary Carcinoma MX-1 Xenograft (intrarenal inoculation) in NU/NU BALB/C (nude) mice. Conditions: endpoint: mean tumor weight change, higher = larger tumour. The procedure, abridged: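 Antitumor activity is expressed as a T/C ratio. The treated group's tumor size or survival is compared against the vehicle-treated control group in mice bearing transplanted tumors.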

For the molecule `CSc1cc(=O)n2c3ccccc3c3ccnc1c32`, the T/C (dose: 80.0 mg/kg/injection, schedule: Q04DX003 (sc), vehicle: saline with Tween-80) was 89 % of control; the T/C (dose: 160.0 mg/kg/injection, schedule: Q04DX003 (sc), vehicle: saline with Tween-80) was 26 % of control; the T/C (dose: 320.0 mg/kg/injection, schedule: Q04DX003 (sc), vehicle: saline with Tween-80) was 40 % of control.

As to `CCCCN1C(=O)N(c2ccc(OCC)cc2)C2N(CCCC)C1C(C)(C)C2(C)C` (stereo not drawn), the T/C is 90 % of control (dose: 15.0 mg/kg/injection, schedule: Q04DX003 (ip), vehicle: saline with Tween-80); 77 % of control (dose: 30.0 mg/kg/injection, schedule: Q04DX003 (ip), vehicle: saline with Tween-80); 89 % of control (dose: 60.0 mg/kg/injection, schedule: Q04DX003 (ip), vehicle: saline with Tween-80); 98 % of control (dose: 240.0 mg/kg/injection, schedule: Q04DX003 (ip), vehicle: saline with Tween-80).

In the case of `CC(=O)/C(=C\c1ccc(/C=C(\C(C)=O)C(=O)CCN(C)C)cc1)C(=O)CCN(C)C`, the T/C (dose: 100.0 mg/kg/injection, schedule: Q04DX003 (ip), vehicle: saline with Tween-80) was 122 % of control and the T/C (dose: 200.0 mg/kg/injection, schedule: Q04DX003 (ip), vehicle: saline with Tween-80) is 90 % of control.

Consider `c1ccc2c(c1)-c1ccccc1C1NC21` (stereo not drawn), for which the T/C was 60 % of control (dose: 37.5 mg/kg/injection, schedule: Q04DX003 (sc), vehicle: saline with Tween-80) and 30 % of control (dose: 75.0 mg/kg/injection, schedule: Q04DX003 (sc), vehicle: saline with Tween-80).

Regarding `CC(=O)c1c(O)c(C)c(O)c2c1OC1=CC(=O)C(C(C)=O)C(=O)C12C` (stereo not drawn), the T/C reads like this: (dose: 200.0 mg/kg/injection, schedule: Q01DX010 (sc), vehicle: sodium bicarbonate) 96 % of control; (dose: 400.0 mg/kg/injection, schedule: Q01DX010 (sc), vehicle: sodium bicarbonate) 72 % of control.

For `Cc1cc(N/N=C/c2ccccn2)nc2ccccc12`, the T/C (dose: 300.0 mg/kg/injection, schedule: Q04DX003 (sc), vehicle: Klucel (hydroxypropylcellulose) (HPC)) was 74 % of control; the T/C (dose: 600.0 mg/kg/injection, schedule: Q04DX003 (sc), vehicle: Klucel (hydroxypropylcellulose) (HPC)) is 73 % of control; the T/C (dose: 1200.0 mg/kg/injection, schedule: Q04DX003 (sc), vehicle: Klucel (hydroxypropylcellulose) (HPC)) is 43 % of control; the T/C (dose: 2400.0 mg/kg/injection, schedule: Q04DX003 (sc), vehicle: Klucel (hydroxypropylcellulose) (HPC)) is 68 % of control.

On to `[N-]=[N+]=CC(=O)CCC(NC(=O)OCc1ccccc1)C(=O)OCc1ccccc1` (stereo not drawn), for which the T/C is, setting by setting: (dose: 300.0 mg/kg/injection, schedule: Q04DX003 (ip), vehicle: Klucel (hydroxypropylcellulose) (HPC)) 6 % of control and 23 % of control and 27 % of control; (dose: 450.0 mg/kg/injection, schedule: Q04DX003 (ip), vehicle: Klucel (hydroxypropylcellulose) (HPC)) 20 % of control; (dose: 600.0 mg/kg/injection, schedule: Q04DX003 (ip), vehicle: Klucel (hydroxypropylcellulose) (HPC)) 6 % of control and 16 % of control; (dose: 900.0 mg/kg/injection, schedule: Q04DX003 (ip), vehicle: Klucel (hydroxypropylcellulose) (HPC)) 1 % of control; (dose: 1200.0 mg/kg/injection, schedule: Q04DX003 (ip), vehicle: Klucel (hydroxypropylcellulose) (HPC)) 22 % of control.

In the case of `NC(=O)c1c[se]c(C2OC(CO)C(O)C2O)n1` (stereo not drawn), the T/C is 88 % of control (dose: 75.0 mg/kg/injection, schedule: Q04DX003 (ip), vehicle: water); 61 % of control (dose: 150.0 mg/kg/injection, schedule: Q04DX003 (ip), vehicle: water); 50 % of control (dose: 300.0 mg/kg/injection, schedule: Q04DX003 (ip), vehicle: water); 43 % of control (dose: 600.0 mg/kg/injection, schedule: Q04DX003 (ip), vehicle: water).

As for `C/C=C/C=C\C=C/C(O)CC(OP(=O)(O)O)C(C)(O)/C=C/C1CC=CC(=O)O1` (stereo not drawn), the T/C by setting is: (dose: 6.0 mg/kg/injection, schedule: Q04DX003 (ip), vehicle: water) 86 % of control; (dose: 12.0 mg/kg/injection, schedule: Q04DX003 (ip), vehicle: water) 56 % of control; (dose: 24.0 mg/kg/injection, schedule: Q04DX003 (ip), vehicle: water) 50 % of control.

In the case of `CCOc1cc2c(cc1C(C)c1ccc(OC)cc1)OCO2` (stereo not drawn), the T/C (dose: 300.0 mg/kg/injection, schedule: Q04DX003 (sc), vehicle: distilled water + alcohol) is 36 % of control; the T/C (dose: 600.0 mg/kg/injection, schedule: Q04DX003 (sc), vehicle: distilled water + alcohol) is 90 % of control; the T/C (dose: 1200.0 mg/kg/injection, schedule: Q04DX003 (sc), vehicle: distilled water + alcohol) was 76 % of control; the T/C (dose: 2400.0 mg/kg/injection, schedule: Q04DX003 (sc), vehicle: distilled water + alcohol) is 111 % of control.

For the molecule `CC#CCOCC(O)CCl` (stereo not drawn), the T/C was 91 % of control and 97 % of control (dose: 150.0 mg/kg/injection, schedule: Q04DX003 (ip), vehicle: suspension in saline); 97 % of control (dose: 300.0 mg/kg/injection, schedule: Q04DX003 (ip), vehicle: suspension in saline).

With `O=C(O)CC1C(=O)OC2C3COC(=O)c4cc(O)c(O)c(O)c4-c4c(cc(O)c(O)c4O)C(=O)OC2C(OC(=O)c2cc(O)c(O)c4c2C1C(O)C(=O)O4)C(OC(=O)c1cc(O)c(O)c(O)c1)O3` (stereo not drawn), the T/C (dose: 25.0 mg/kg/injection, schedule: Q04DX003 (ip), vehicle: saline) was 120 % of control; the T/C (dose: 50.0 mg/kg/injection, schedule: Q04DX003 (ip), vehicle: saline) is 99 % of control; the T/C (dose: 100.0 mg/kg/injection, schedule: Q04DX003 (ip), vehicle: saline) is 73 % of control.

`CNC(=O)ON(C(C)=O)C(=O)NC`: the T/C by setting is: (dose: 12.5 mg/kg/injection, schedule: Q01DX010 (ip), vehicle: saline) 218 % of control; (dose: 25.0 mg/kg/injection, schedule: Q01DX010 (ip), vehicle: saline) 106 % of control; (dose: 25.0 mg/kg/injection, schedule: Q01DX010 (sc), vehicle: saline) 104 % of control; (dose: 50.0 mg/kg/injection, schedule: Q01DX010 (ip), vehicle: saline) 72 % of control; (dose: 50.0 mg/kg/injection, schedule: Q01DX010 (sc), vehicle: saline) 26 % of control; (dose: 100.0 mg/kg/injection, schedule: Q01DX010 (ip), vehicle: saline) 5 % of control. The T/C was -42 % of control (dose: 100.0 mg/kg/injection, schedule: Q01DX010 (sc), vehicle: saline) and -89 % of control (dose: 200.0 mg/kg/injection, schedule: Q01DX010 (sc), vehicle: saline).

For the molecule `C=CC(C)NC(=S)NNC(=S)NC` (stereo not drawn), the T/C is, setting by setting: (dose: 300.0 mg/kg/injection, schedule: Q04DX003 (sc), vehicle: saline + alcohol) 85 % of control; (dose: 600.0 mg/kg/injection, schedule: Q04DX003 (sc), vehicle: saline + alcohol) 58 % of control; (dose: 1200.0 mg/kg/injection, schedule: Q04DX003 (sc), vehicle: saline + alcohol) 99 % of control.

Regarding `CC1OC2CC(O)C1(O)C1=C2C(O)=C(C(N)=O)C(=N)C1=O` (stereo not drawn), the T/C (dose: 0.62 mg/kg/injection, schedule: Q04DX003 (ip), vehicle: saline) was 99 % of control; the T/C (dose: 1.25 mg/kg/injection, schedule: Q04DX003 (ip), vehicle: saline) is 62 % of control; the T/C (dose: 2.5 mg/kg/injection, schedule: Q04DX003 (ip), vehicle: saline) is 101 % of control.

As for `O=C(NC(Cc1ccc(I)cc1)C(=O)O)c1ccc(Br)cc1` (stereo not drawn), the T/C was 92 % of control (dose: 37.5 mg/kg/injection, schedule: Q04DX003 (ip), vehicle: sodium bicarbonate); 87 % of control and 112 % of control (dose: 150.0 mg/kg/injection, schedule: Q04DX003 (ip), vehicle: sodium bicarbonate); 78 % of control (dose: 300.0 mg/kg/injection, schedule: Q04DX003 (ip), vehicle: sodium bicarbonate).

As to `COc1cc(NCc2ccc3nc(N)nc(N)c3c2C)cc(OC)c1OC`, the T/C (dose: 15.0 mg/kg/injection, schedule: Q04DX003 (ip), vehicle: Klucel (hydroxypropylcellulose) (HPC)) was 96 % of control and 101 % of control; the T/C (dose: 30.0 mg/kg/injection, schedule: Q04DX003 (ip), vehicle: Klucel (hydroxypropylcellulose) (HPC)) is 81 % of control and 95 % of control; the T/C (dose: 120.0 mg/kg/injection, schedule: Q04DX003 (ip), vehicle: Klucel (hydroxypropylcellulose) (HPC)) was 56 % of control and 71 % of control.
